Assay results published in PubChem BioAssay AID1259420 (Broad Institute, 2018).
Values joined by “and” are separate entries in the source; they are usually repeats but may differ in a detail not shown here. Equal values may be shown once. Inconclusive results are not listed. Active and inactive are the calls of the source. No rule for the calls is given here.

The compounds below were run on Toxoplasma gondii growth in host cells, no IFN-gamma (assay: T. gondii intracellular growth, IFN-gamma absent, dose response, cell-based (AID 1259420);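 also: host cells were HeLa; final incubation lasted 72 hours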).
With `CN1CCC2(C=C(C(=O)N3CCCC3)c3ccccc32)CC1` the AC50 was > 39 µM (inactive).
`O=C(Nc1ccccc1F)N1C[C@@H]2N[C@H](C1)C2c1ccc(/C=C/c2ccccc2)cc1` (some centres undefined) showed an AC50 of 18.6 µM.
`COCCN1CCN(S(=O)(=O)c2ccccc2)Cc2cccnc21` was tested, and the AC50 was 31.1 µM.
With `COc1cc2nc(N3CCN(C(=O)c4ccco4)CC3)nc(N)c2cc1OC` the AC50 was 19 µM.
In the case of `CC1CCCCN1CCNc1nc(-c2ccc(Cl)cc2)nc2ccccc12` (centres undefined), the AC50 is reported as 11.8 µM.
`Cc1ccc(S(=O)(=O)N2CC[C@@H]3[C@H]2c2cc(-c4cccc(C(=O)N(C)C)c4)ccc2N[C@@H]3CO)cc1` was tested, and the AC50 was 30.1 µM.
`CCCNC(=O)N1[C@@H](C#N)[C@H](c2ccc(C#Cc3cccc(F)c3)cc2)[C@@H]1CO` was tested, and the AC50 was 19.3 µM.
Compound `CN(C)C(=O)c1cccc(-c2ccc3c(c2)[C@H]2[C@H](CCN2C(=O)Cc2ccccc2)[C@H](CO)N3)c1` has an AC50 of 16.6 µM.
For `Cc1cnc(N2CCC3(CCC(CC(=O)N4CC=CC4)CC3)CC2)nc1`, the AC50 was 22.6 µM.
Work on `c1cnc(N2CCC(Oc3cnccn3)CC2)nc1` yielded an AC50 of 15.6 µM.
For `N#C[C@@H]1[C@@H](c2ccc(-c3cccc(F)c3)cc2)[C@H](CO)N1C(=O)NC1CCCC1`, the AC50 was > 20 µM (inactive).
With `O=S(=O)(c1cccc(F)c1)N1CC[C@@H]2[C@H]1c1cc(C#Cc3ccccc3F)ccc1N[C@@H]2CO` the AC50 was 17.3 µM.
With `CN(C[C@H]1N[C@@H](CO)[C@@H]1c1ccc(C2=CCCC2)cc1)C(=O)c1cccc(F)c1` the AC50 was 3.41 µM and 4.45 µM.
With `COC(=O)C1CC23C=CNC4CCC5(c6ccccc6NC15C2C)C43` (centres undefined) the AC50 was 19.4 µM.
For `Cc1ccccc1C(=O)N1CCC(N2CCOCC2)CC1C(=O)O` (centres undefined), the AC50 was > 39 µM (inactive).
In the case of `Fc1cccc(CN2C[C@@H]3N[C@H](C2)C3c2ccc(/C=C/c3ccccc3)cc2)c1` (some centres undefined), the AC50 is reported as 17.6 µM.
In the case of `O=C(C[C@H]1C[C@@H]2CN(Cc3ccccc3)C[C@H]2O1)N1CCCCO1`, the AC50 is reported as > 39 µM (inactive).
In the case of `O=C(c1cccn2c(-c3ccc(F)cc3)nnc12)N1CCC(O)(c2ccc(Cl)cc2)CC1`, the AC50 is reported as > 39 µM (inactive).
With `Cc1ccc2c(c1)c(Cn1cc(-c3sccc3C)nn1)nn2C` the AC50 was 31.1 µM and 25.4 µM.
In the case of `Cc1cc(C(C)(C)CC(C)(C)C)ccc1OCCOCC[N+](C)(C)Cc1ccccc1`, the AC50 is reported as 12.5 µM.
`CC(C)CC#Cc1ccc([C@@H]2[C@@H](CO)N3CCCCN(C(=O)Nc4ccccc4)C[C@H]23)cc1` showed an AC50 of 15.9 µM.
`O=c1[nH]c(=O)n([C@H]2C[C@H](O)[C@@H](CO)O2)cc1F` showed an AC50 of 0.346 µM.
Work on `O=S1(=O)c2ccccc2O[C@H]2CCN(Cc3ccc(Cl)cc3)CC[C@H]2N1CC1CC1` yielded an AC50 of 22.5 µM.
With `COc1ccccc1C(=O)Nc1ccc(-c2nc(-c3ccc(C)cc3C)co2)cc1` the AC50 was 21 µM.
In the case of `CN1c2ccc(C3=CCCCC3)cc2[C@@H]2[C@@H](CCN2C(=O)c2ccc3c(c2)OCO3)[C@@H]1CO`, the AC50 is reported as 27.5 µM.
Compound `CC(C)C#Cc1ccc([C@H]2[C@@H](C#N)N(C(=O)c3cccc(F)c3)[C@@H]2CO)cc1` has an AC50 of 14.1 µM.
In the case of `CCN(CC)C(=O)C1Cn2ccnc2C2(CCN(CC(C)C)CC2)O1` (centres undefined), the AC50 is reported as > 39 µM (inactive).
`NCCCCCCCCCCNS(=O)(=O)c1cccc2c(Cl)cccc12` was tested, and the AC50 was 15.9 µM.
In the case of `COc1cccc(CN2C[C@@H]3N[C@H](C2)C3c2ccc(-c3ccccc3C)cc2)c1` (some centres undefined), the AC50 is reported as 12.3 µM.
In the case of `CC(C)C#Cc1ccc([C@@H]2[C@H]3CN(C(=O)NC4CCCC4)CC(=O)N3[C@H]2CO)cc1`, the AC50 is reported as > 39 µM (inactive).
With `COc1ccccc1CN1CC[C@@H]2[C@H]1c1cc(-c3cccc(C(=O)N(C)C)c3)ccc1N[C@@H]2CO` the AC50 was 20.2 µM.
For `Cc1cccc(-c2ccc([C@@H]3[C@H](CO)N4CCCCN(S(=O)(=O)c5ccccc5F)C[C@@H]34)cc2)c1`, the AC50 was 19.7 µM.
`COc1ccc(-c2ccc3c(c2)[C@@H]2[C@@H](CCN2C(=O)c2cccc(F)c2)[C@H](CO)N3)cc1` gave an AC50 of 11.3 µM.
`C[C@H](CO)N1C[C@H](C)[C@H](CN(C)C(=O)c2cc(Cl)cc(Cl)c2)OCc2ccccc2-c2c(n(C)c3ccccc23)C1=O` gave an AC50 of 15.3 µM.
For `CC(C)(O)CC(=O)NCCn1ccc2ncnc(Nc3ccc(Oc4cccc(C(F)(F)F)c4)c(Cl)c3)c21`, the AC50 was > 39 µM (inactive).
In the case of `O=C(Nc1cccc(F)c1)N1CCCCN2[C@H](CO)[C@@H](c3ccc(C#Cc4cccnc4)cc3)[C@H]2C1`, the AC50 is reported as 23.6 µM.
`CCCNC(=O)N1[C@H](C#N)[C@H](c2ccc(-c3ccccc3F)cc2)[C@@H]1CO` gave an AC50 of 4.65 µM.
For `COC(=O)[C@@H]1C[C@@H](N(C)C)CN1S(=O)(=O)c1c(C)ccc2nsnc12`, the AC50 was > 39 µM (inactive).
`COc1cccc(S(=O)(=O)N2CCCCN3[C@H](CO)[C@H](c4ccc(C#CCC(C)C)cc4)[C@H]3C2)c1` was tested, and the AC50 was 7.96 µM and 10.6 µM.
With `COCC(=O)N1CC(=O)N2[C@H](CO)[C@@H](c3ccc(C#CC4CC4)cc3)[C@@H]2C1` the AC50 was > 39 µM (inactive).
`Cn1cccc1C(=O)N1CCC2(CC1)CN(CC1CC1)C(=O)CO2` showed an AC50 of 36.8 µM.
With `COc1cccc(S(=O)(=O)N2CCCCN3[C@H](CO)[C@H](c4ccc(C#CC5CC5)cc4)[C@H]3C2)c1` the AC50 was 16.8 µM and 17 µM.
In the case of `CC(C)(C)CC(C)(C)c1ccc(OCCOCC[N+](C)(C)Cc2ccccc2)cc1`, the AC50 is reported as 14.1 µM.
With `O=C(Nc1cccc(F)c1)N1CCCCN2[C@@H](CO)[C@H](c3ccc(C#Cc4cccnc4)cc3)[C@@H]2C1` the AC50 was 3.04 µM.
In the case of `Oc1[nH]c2ccccc2c1N=Nc1nc(Nc2ccccc2)nc(N2CCOCC2)n1`, the AC50 is reported as 16.9 µM.
In the case of `O=C(NCc1cccnc1)C1CC2CN(Cc3cccc(Cl)c3)CC1O2` (centres undefined), the AC50 is reported as 4.73 µM.
`O=C(c1ccc(F)cc1)N1CC(=O)N2[C@@H](CO)[C@H](c3ccc(C#CCC4CCCC4)cc3)[C@@H]2C1` was tested, and the AC50 was 18.6 µM and 22.6 µM.
In the case of `O=C(c1ccc(F)cc1)N1CC(=O)N2[C@H](C1)[C@@H](c1ccc(C#CCC3CCCC3)cc1)[C@@H]2CO`, the AC50 is reported as 14.3 µM.
With `COc1cccc(-c2ccc(C3[C@@H]4CN(S(=O)(=O)Cc5ccccc5)C[C@H]3N4)cc2)c1` (some centres undefined) the AC50 was 16.9 µM and 13.1 µM.
Compound `COCCC(=O)C1Cc2nc(-c3ccccc3)sc2N1CC1CC1` (centres undefined) has an AC50 of 25.2 µM.
For `CN1[C@@H]2c3ccc(/C=C/c4ccccc4)c(=O)n3C[C@H]1[C@H](CO)[C@H]2C(=O)NC1Cc2ccccc2C1`, the AC50 was > 39 µM (inactive).
For `O=C(NCCN1CCCC1)[C@H]1[C@H](CO)[C@H]2Cn3c(cccc3=O)[C@H]2N1Cc1ccccn1`, the AC50 was > 39 µM (inactive).
In the case of `COc1ccc(-c2nc3c(s2)CN(S(=O)(=O)c2cc(C)cc(C)c2)CC3)cc1`, the AC50 is reported as 5.99 µM.
`CCc1ccccc1S(=O)(=O)N1CCc2nc(-c3ccccc3)sc2C1` was tested, and the AC50 was 3.94 µM and 3.08 µM.
With `Cc1ccc(N(Cc2nc(-c3cccc(Cl)c3)oc2C)S(=O)(=O)c2cccs2)cc1` the AC50 was 8.34 µM.
For `CN1c2ccc(-c3ccc(C#N)cc3)cc2[C@@H]2[C@@H](CCN2S(=O)(=O)c2ccc(F)cc2)[C@@H]1CO`, the AC50 was 13 µM.
With `Cc1cc(C(=O)Nc2ccc3c(c2)C(=O)N(C)[C@@H]2CC[C@@H](CC(=O)NCc4ccc(-c5ccccc5)cc4)O[C@@H]2CO3)no1` the AC50 was 17.9 µM.
With `Cc1cnn(C(C)C(=O)N2CCc3[nH]nc(-c4ccc(F)c(F)c4)c3C2)c1` (centres undefined) the AC50 was > 39 µM (inactive).
`CCOC(=O)c1nn(Cc2ccccc2)c2c1CN(C(=O)CN1CC(c3ccccc3)CC1=O)CC2` (centres undefined) showed an AC50 of 28.6 µM.
`C=C(C)[C@@H]1CC[C@]2(C(=O)O)CC[C@]3(C)[C@H](CC[C@@H]4[C@@]5(C)CC[C@H](O)C(C)(C)[C@@H]5CC[C@]43C)[C@@H]12` showed an AC50 of 26.9 µM.
For `Cc1cccc(OCC(=O)N2CCC3(CC2)Nc2ccc(Cl)cc2-n2cccc23)c1`, the AC50 was 13.7 µM.
`C=CCN1C(=O)COC2(CCN(Cc3ccc(C)s3)CC2)C1C` (centres undefined) was tested, and the AC50 was > 39 µM (inactive).
In the case of `Cc1ccccc1-c1ccc2c(-c3ncc(C(=O)NCCN(C)C)s3)noc2c1`, the AC50 is reported as 24.7 µM.
For `Cc1cccc(S(=O)(=O)N2CC[C@@H]3[C@H](CO)Nc4ccc(-c5ccccc5F)cc4[C@@H]32)c1`, the AC50 was 17.2 µM.
